From US8778939B2, “Compounds” (Glaxo Group Limited, priority 2009, dated 2014) come the findings set out here.

The target of assay [1] is T1, 6His-Tev-LRRK2 (1326-2527) (Homo sapiens, UniProt Q5S007).
T1 construct: A LRRK2 cDNA encoding residues 1326-2527 was received from Dundee University; made in house; host or cells: Spodoptera frugiperda (Sf9) insect cells, baculovirus
T1 sequence (Q5S007 1326-2527): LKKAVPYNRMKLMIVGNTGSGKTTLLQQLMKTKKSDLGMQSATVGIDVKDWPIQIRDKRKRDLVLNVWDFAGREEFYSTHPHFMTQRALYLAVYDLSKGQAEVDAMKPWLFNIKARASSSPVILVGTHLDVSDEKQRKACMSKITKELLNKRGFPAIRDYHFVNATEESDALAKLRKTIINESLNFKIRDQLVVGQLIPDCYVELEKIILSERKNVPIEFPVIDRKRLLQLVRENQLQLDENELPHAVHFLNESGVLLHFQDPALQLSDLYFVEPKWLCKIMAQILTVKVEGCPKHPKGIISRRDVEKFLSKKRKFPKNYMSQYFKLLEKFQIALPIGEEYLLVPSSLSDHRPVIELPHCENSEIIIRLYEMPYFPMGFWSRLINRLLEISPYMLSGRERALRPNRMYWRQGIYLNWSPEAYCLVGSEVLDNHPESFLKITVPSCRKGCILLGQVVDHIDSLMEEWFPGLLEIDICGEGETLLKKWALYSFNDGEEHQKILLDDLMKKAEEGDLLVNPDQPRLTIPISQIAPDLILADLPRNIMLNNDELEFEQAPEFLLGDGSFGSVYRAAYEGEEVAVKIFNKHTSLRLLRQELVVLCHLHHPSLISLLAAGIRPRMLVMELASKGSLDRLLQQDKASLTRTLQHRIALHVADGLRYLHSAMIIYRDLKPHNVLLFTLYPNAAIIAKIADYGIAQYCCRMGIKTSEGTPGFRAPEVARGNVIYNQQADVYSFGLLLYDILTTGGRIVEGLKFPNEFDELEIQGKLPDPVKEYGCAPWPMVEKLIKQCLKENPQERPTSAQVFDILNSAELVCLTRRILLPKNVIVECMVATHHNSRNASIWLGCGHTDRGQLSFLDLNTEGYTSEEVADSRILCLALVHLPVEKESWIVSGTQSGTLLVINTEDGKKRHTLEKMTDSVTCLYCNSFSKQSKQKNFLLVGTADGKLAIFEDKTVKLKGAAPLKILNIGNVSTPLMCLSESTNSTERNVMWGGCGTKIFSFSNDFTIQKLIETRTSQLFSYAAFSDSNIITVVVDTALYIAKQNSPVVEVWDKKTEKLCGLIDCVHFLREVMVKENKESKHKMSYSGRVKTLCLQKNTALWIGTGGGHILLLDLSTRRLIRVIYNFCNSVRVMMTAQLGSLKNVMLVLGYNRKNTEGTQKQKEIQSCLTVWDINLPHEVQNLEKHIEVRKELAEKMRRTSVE
Nature of the assay: LRRK2 peptide substrate assay. In kind it is biochemical. The note with it: Biotin-LRRKtide peptide substrate, ATP at Km. The procedure:
Compounds of formula (I) may be tested for in vitro kinase activity in accordance with the following assays, using the non natural, in vitro, substrates moesin and the Longer Biotin-LRRKtide. Moesin and a shorter version of the peptide were identified as substrates in Jaleel et al, (2007, Biochem J, 405: 307-317).
LRRK2 Peptide Substrate Assay
(§1) a) 100 nl of a 1:4 serial dilution of test compound with a top final assay concentration of 30 μM is added to certain wells in a low volume 384 well black plate. 100 nl of DMSO is used in certain wells as controls.
b) 3 μl enzyme solution (80 nM purified recombinant 6His-Tev-LRRK2 (1326-2527) in assay buffer: 50 mM Hepes (pH 7.2), 10 mM MgCl2, 150 mM NaCl, 5% glycerol, 0.0025% triton X-100 and 1 mM DTT) is added to certain wells. […] Plates are then incubated for a further 1-2 hours at room temperature (incubation time varies depending upon rate and linearity of reaction with differing enzyme batches). d) 6 μl detection solution (50 nM Streptavidin SureLight® APC (PerkinElmer), 4 nM Eu-W1024 labelled anti-rabbit IgG antibody (PerkinElmer), 1:500 dilution (dilution determined on a batch to batch basis) of Phospho-Ezrin (Thr567)/Radixin (Thr564)/Moesin (Thr558) Polyclonal Antibody (New England Biolabs) and 60 mM EDTA in buffer: 40 mM Hepes (pH 7.2), 150 mM NaCl, 0.03% BSA) is added to each well. Plates are then incubated for a further 2 hours at room temperature before reading on a suitable plate reader (Excitation 330 nm, emission 620 nm (Eu) and 665 nm (APC)). Data is analysed using ActivityBase software (IDBS). LRRK2 AlphaScreen Protein Substrate Assay

For assay [2], the target named is T1, 6His-Tev-LRRK2 (1326-2527). Briefly: LRRK2 AlphaScreen desensitised protein substrate assay. In kind it is biochemical. The procedure:
as §1
b) 3 μl enzyme solution (80 nM purified recombinant 6His-Tev-LRRK2 (1326-2527) in assay buffer: 50 mM Hepes (pH 7.2), 10 mM MgCl2, 150 mM NaCl, 5% glycerol, 0.0025% triton X-100 and 1 mM DTT) is added to certain wells.
Plates are then incubated for a further 1-2 hours at room temperature (incubation time varies depending upon rate and linearity of reaction with differing enzyme batches).
d) 6 μl detection solution (1:250 dilution of AlphaLisa Protein A Acceptor beads (PerkinElmer), 1:64 dilution of AlphaLisa Gluthathione Donor beads (PerkinElmer) and 1:600 dilution (dilution determined on a batch to batch basis) of Phospho-Ezrin (Thr567)/Radixin (Thr564)/Moesin (Thr558) Polyclonal Antibody (New England Biolabs) in a buffer: 50 mM Hepes (pH 7.5), 250 mM NaCl, 60 mM EDTA, 1% PEG and 0.01% Brij 35) is added to each well. Plates are then incubated for a further 2 hours at room temperature in the dark before reading on an EnVision™ plate reader with AlphaScreen HTS turbo option module and AlphaScreen settings. Data is analysed using ActivityBase software (IDBS).
LRRK2 AlphaScreen Desensitised Protein Substrate Assay
This is conducted as described for the LRRK2 alphascreen protein substrate assay, with the following differences: • 1. The concentration of ATP in the substrate solution was 2 mM. • 2. The plates were incubated for 20 minutes at room temperature following addition of the substrate solution. Pharmacological Data

[3] abbreviates: read-out: pIC50 in the LRRK2 peptide substrate assay (converted).
Setting [4] is: excess of ATP present (2 mM ATP), read-out: pIC50 in the LRRK2 alphascreen desensitised protein substrate assay (converted).
Setting [5] is: mean pIC50, read-out: LRRK2 peptide substrate assay (pIC50) (converted).
Setting [6] is: mean pIC50, GST-PS-Moesin (400-577) substrate, 2 mM ATP (excess of ATP present), read-out: LRRK2 alphascreen desensitised protein substrate assay (pIC50) (converted).

Bounds are passed on as bounds.

In the case of `O=C(Nc1cccnc1)c1cc(CN2CCOCC2)ccc1OCc1ccc(F)c(F)c1` [Example 112, 2-{[(3,4-Difluorophenyl)methyl]oxy}-5-(4-morpholinylmethyl)-N-3-pyridinylbenzamide], the IC50 is not above 100 nM in assay [1] (setting [3]) and not above 20000 nM in assay [2] (setting [4]).
On to `O=C(Nc1cccnc1)c1cc(-c2cnn(CCN3CCOCC3)c2)ccc1OCc1ccc(F)cc1` [Example 128, 2-{[(4-Fluorophenyl)methyl]oxy}-5-{1-[2-(4-morpholinyl)ethyl]-1H-pyrazol-4-yl}-N-3-pyridinylbenzamide], for which the IC50 in assay [1] (setting [3]) is not above 10 nM; in assay [1] (setting [5]) it was 7.94 nM; in assay [2] (setting [4]), not above 20000 nM; in assay [2] (setting [6]), 126 nM.
For `Cn1cc(-c2ccc(OCc3ccc(F)c(F)c3)c(C(=O)Nc3ccnnc3)c2)cn1` [Example 105, 2-{[(3,4-Difluorophenyl)methyl]oxy}-5-(1-methyl-1H-pyrazol-4-yl)-N-4-pyridazinylbenzamide], the IC50 in assay [1] (setting [3]) is not above 100 nM; in assay [2] (setting [4]), not above 20000 nM.
For `COC(=O)NCc1ccc(OCc2ccccc2)c(C(=O)Nc2cccnc2)c1` [Example 86, Methyl ({4-[(phenylmethyl)oxy]-3-[(3-pyridinylamino)carbonyl]phenyl}methyl)carbamate], in that order: not above 10 nM and not above 20000 nM.
With `O=C(Nc1cccnc1F)c1cc(C(=O)N2CCOCC2)ccc1OCc1ccc(F)cc1` [Example 123, 2-{[(4-Fluorophenyl)methyl]oxy}-N-(2-fluoro-3-pyridinyl)-5-(4-morpholinylcarbonyl)benzamide], the IC50 was not above 100 nM in assay [1] (setting [3]), 39.8 nM in assay [1] (setting [5]), not above 20000 nM in assay [2] (setting [4]) and 2510 nM in assay [2] (setting [6]).
As to `C[C@@H]1CN(c2ccc(OCc3ccccc3)c(C(=O)Nc3cccnc3)c2)C[C@H](C)N1C` [Example 103, 2-[(Phenylmethyl)oxy]-N-3-pyridinyl-5-[(3R,5S)-3,4,5-trimethyl-1-piperazinyl]benzamide], the IC50 in assay [1] (setting [3]) is not above 10 nM; in assay [2] (setting [4]), not above 20000 nM.
For `Cn1cc(-c2ccc(OCc3ccccc3)c(C(=O)Nc3ccnnc3)c2)cn1` [Example 73, 5-(1-Methyl-1H-pyrazol-4-yl)-2-[(phenylmethyl)oxy]-N-4-pyridazinylbenzamide], in that order: not above 10 nM and not above 20000 nM.
For `O=C(Nc1cccnc1)c1cc(-c2ccncc2)ccc1OCc1ccc(F)c(F)c1` [Example 109, 2-{[(3,4-Difluorophenyl)methyl]oxy}-N-3-pyridinyl-5-(4-pyridinyl)benzamide] the same measures were not above 100 nM and not above 20000 nM.
For `CNCCOc1ccc(OCc2ccccc2)c(C(=O)Nc2cccnc2)c1` [Example 48, 5-{[2-(Methylamino)ethyl]oxy}-2-[(phenylmethyl)oxy]-N-3-pyridinylbenzamide], the IC50 is not above 100 nM in assay [1] (setting [3]) and not above 20000 nM in assay [2] (setting [4]).
Consider `O=C(Nc1cccnc1)c1cc(CN2CCOCC2)ccc1OCc1ccc(F)cc1` [Example 117, 2-{[(4-Fluorophenyl)methyl]oxy}-5-(4-morpholinylmethyl)-N-3-pyridinylbenzamide], for which the IC50 in assay [1] (setting [3]) was not above 100 nM; in assay [1] (setting [5]), 20 nM; in assay [2] (setting [4]), not above 20000 nM; in assay [2] (setting [6]) it was 794 nM.
Take `O=C(Nc1cncc(F)c1)c1cc(Br)ccc1OCc1ccccc1` [Example 98, 5-Bromo-N-(5-fluoro-3-pyridinyl)-2-[(phenylmethyl)oxy]benzamide]: the IC50 in assay [1] (setting [3]) was not above 100 nM; in assay [2] (setting [4]), more than 25100 nM.
For the compound `O=C(Nc1cccnc1)c1cc(-c2ccn[nH]2)ccc1OCc1ccc(F)c(F)c1` [Example 107, 2-{[(3,4-Difluorophenyl)methyl]oxy}-5-(1H-pyrazol-5-yl)-N-3-pyridinylbenzamide], the IC50 in assay [1] (setting [3]) was not above 10 nM; in assay [2] (setting [4]) it was not above 20000 nM.
For `O=C(Nc1cccnc1)c1cc(CN2CCCC2)ccc1OCc1ccccc1` [Example 70, 2-[(Phenylmethyl)oxy]-N-3-pyridinyl-5-(1-pyrrolidinylmethyl)benzamide], in that order: not above 100 nM and not above 20000 nM.
For `O=C(Nc1ccnnc1)c1cc(-c2cn[nH]c2)ccc1OCc1ccc(F)c(F)c1` [Example 108, 2-{[(3,4-Difluorophenyl)methyl]oxy}-5-(1H-pyrazol-4-yl)-N-4-pyridazinylbenzamide] the same measures were not above 100 nM and not above 20000 nM.
For `COc1cccc(COc2ccc(-c3cnn(C)c3)cc2C(=O)Nc2cccnc2)c1` [Example 115, 2-({[3-(Methyloxy)phenyl]methyl}oxy)-5-(1-methyl-1H-pyrazol-4-yl)-N-3-pyridinylbenzamide] the same measures were not above 100 nM and not above 20000 nM.
In the case of `CN1CCC[C@@H]1COc1ccc(OCc2ccccc2)c(C(=O)Nc2cccnc2)c1` [Example 45, 5-({[(2R)-1-Methyl-2-pyrrolidinyl]methyl}oxy)-2-[(phenylmethyl)oxy]-N-3-pyridinylbenzamide], the IC50 in assay [1] (setting [3]) was not above 10 nM; in assay [2] (setting [4]), not above 20000 nM.
For `Cc1nocc1NC(=O)c1cc(-c2ccncc2)ccc1OCc1ccccc1` [Example 61, N-(3-Methyl-4-isoxazolyl)-2-[(phenylmethyl)oxy]-5-(4-pyridinyl)benzamide] the same measures were not above 10 nM and not above 20000 nM.
With `O=C(Nc1cccnc1)c1cc(CCCN2CCOCC2)ccc1OCc1ccc(F)cc1` [Example 136, 2-{[(4-Fluorophenyl)methyl]oxy}-5-[3-(4-morpholinyl)propyl]-N-3-pyridinylbenzamide], the IC50 is not above 100 nM in assay [1] (setting [3]), 100 nM in assay [1] (setting [5]), not above 20000 nM in assay [2] (setting [4]) and 398 nM in assay [2] (setting [6]).
